One test addresses human PD-L1 (Homo sapiens (Human), UniProt Q9NZQ7). As to the kind of experiment: T cell activation luciferase reporter cell culture system (T Cell Activation Assay). As to conditions: luciferase reporter assay; PD-L1 aAPC/CHO-K1 cells with PD-1 effector Jurkat T cells. It counts as cell-based. (In a reporter assay the amount or activity of a reporter protein is the signal.)
Test [1] deals with PD-L1 His protein / PD-1 Fc protein (Homo sapiens (Human), UniProt Q9NZQ7). As to the kind of experiment: HTRF Assay (PD-1/PD-L1 interaction). It counts as binding. To be noted: PD-L1 His 6 nM, PD-1 Fc 6 nM. For orientation: Time-resolved FRET reads energy transfer from a long-lived donor to a nearby acceptor.
Sequence of PD-L1 His protein / PD-1 Fc protein (Q9NZQ7 19-238): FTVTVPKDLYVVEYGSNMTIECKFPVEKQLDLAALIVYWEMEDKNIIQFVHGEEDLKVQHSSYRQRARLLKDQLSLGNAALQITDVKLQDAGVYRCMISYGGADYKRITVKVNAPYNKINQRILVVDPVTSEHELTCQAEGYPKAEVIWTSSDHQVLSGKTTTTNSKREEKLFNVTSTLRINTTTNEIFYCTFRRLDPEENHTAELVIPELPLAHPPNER

These results are taken from patent publication US20240246964A1 (Arbutus Biopharma Corporation, priority 2021, published 2024).

SMILES strings stand for the structures.

Sequence of human PD-L1 (Q9NZQ7 19-290): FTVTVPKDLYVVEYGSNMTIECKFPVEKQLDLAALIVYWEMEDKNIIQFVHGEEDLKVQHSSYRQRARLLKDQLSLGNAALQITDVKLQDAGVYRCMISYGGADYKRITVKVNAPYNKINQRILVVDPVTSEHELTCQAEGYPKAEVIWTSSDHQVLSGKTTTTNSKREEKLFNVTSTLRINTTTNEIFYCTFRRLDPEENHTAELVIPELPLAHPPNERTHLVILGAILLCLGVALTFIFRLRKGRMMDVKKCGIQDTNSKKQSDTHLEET

What is called EC50 is the concentration giving half of the maximal effect. A higher EC50 goes with a need for much substance. For orientation: IC50 means the concentration that inhibits the measured activity by half. At human PD-L1, `COc1nc(-c2cccc(-c3ccnc(-c4ccc(CN5CC6(C5)CN(C(C)=O)C6)c(OC(F)F)c4)c3Cl)c2Cl)ccc1CN1CC2(CNC(=O)C2)C1` [Example 662, 2-((6-(3-(2-(4-((6-Acetyl-2,6-diazaspiro[3.3]heptan-2-yl)methyl)-3-(difluoromethoxy)phenyl)-3-chloropyridin-4-yl)-2-chlorophenyl)-2-methoxypyridin-3-yl)methyl)-2,6-diazaspiro[3.4]octan-7-one] showed an EC50 of 18.5 nM. Further, in test [1], the half-inhibitory concentration (IC50) came to 0.74 nM.

Take `COc1nc(-c2cccc(-c3ccnc(-c4ccc(CNC5CCN(C(C)=O)CC5)c(OC(F)F)c4)c3Cl)c2Cl)ccc1CN1CC2(CNC(=O)C2)C1` [Example 665, 2-((6-(3-(2-(4-(((1-Acetylpiperidin-4-yl)amino)methyl)-3-(difluoromethoxy)phenyl)-3-chloropyridin-4-yl)-2-chlorophenyl)-2-methoxypyridin-3-yl)methyl)-2,6-diazaspiro[3.4]octan-7-one]: at human PD-L1, the EC50 is 46.3 nM. Further, in test [1], the IC50 is 0.6 nM.

In turn, `COc1cc(-c2nccc(-c3nccc(-c4ccc(CN5CC6(CNC(=O)C6)C5)c(OC)n4)c3Cl)c2Cl)ccc1CN1CC2(CNC(=O)C2)C1` [Example 669, 2-(4-(3′,3″-Dichloro-6-methoxy-5-((7-oxo-2,6-diazaspiro[3.4]octan-2-yl)methyl)-[2,4′:2′,4″-terpyridin]-2″-yl)-2-methoxybenzyl)-2,6-diazaspiro[3.4]octan-7-one] registered a concentration for a half-maximal effect (EC50) at human PD-L1 of 296 nM. Also, the midpoint of inhibition in test [1], the IC50, lay at 0.34 nM.

With `COc1cc(-c2nccc(-c3cccc(NC(=O)c4ccc(CNC[C@@H]5CCC(=O)N5)cn4)c3Cl)c2Cl)ccc1CNC[C@@H]1CCC(=O)N1` [Example 675, N-(2-Chloro-3-(3-chloro-2-(3-methoxy-4-(((((S)-5-oxopyrrolidin-2-yl)methyl)amino)methyl)phenyl)pyridin-4-yl)phenyl)-5-(((((S)-5-oxopyrrolidin-2-yl)methyl)amino)methyl)picolinamide], at human PD-L1, the concentration giving a half-maximal response (EC50) came to 26.9 nM. In test [1], this molecule had an IC50 of 0.26 nM.

Take `COc1cc(-c2nccc(-c3cccc(NC(=O)c4ccc(CNCCO)cn4)c3Cl)c2Cl)ccc1CNCCO` [Example 676, N-(2-Chloro-3-(3-chloro-2-(4-(((2-hydroxyethyl)amino)methyl)-3-methoxyphenyl)pyridin-4-yl)phenyl)-5-(((2-hydroxyethyl)amino)methyl)picolinamide]: the 50% effective concentration (EC50) at human PD-L1 amounted to 37.3 nM. For the same molecule, inhibition in test [1] was half-maximal at 0.1 nM (IC50).

Take `COc1cc(-c2nccc(-c3cccc(NC(=O)c4ccc(CN5CC6(C5)CN(C(C)=O)C6)cn4)c3Cl)c2Cl)ccc1CN1CC2(C1)CN(C(C)=O)C2` [Example 677, 5-((6-Acetyl-2,6-diazaspiro[3.3]heptan-2-yl)methyl)-N-(3-(2-(4-((6-acetyl-2,6-diazaspiro[3.3]heptan-2-yl)methyl)-3-methoxyphenyl)-3-chloropyridin-4-yl)-2-chlorophenyl)picolinamide]: at human PD-L1, a half-maximal response (EC50) required 1210 nM. The molecule also returned a concentration for half-maximal inhibition (IC50) in test [1] of 0.04 nM.

`COc1cc(-c2nccc(-c3cccc(NC(=O)c4ccc(CNC[C@H](C)O)cn4)c3Cl)c2Cl)ccc1CNC[C@H](C)O` [Example 678, N-(2-Chloro-3-(3-chloro-2-(4-((((S)-2-hydroxypropyl)amino)methyl)-3-methoxyphenyl)pyridin-4-yl)phenyl)-5-((((S)-2-hydroxypropyl)amino)methyl)picolinamide]: the half-maximal effective concentration (EC50) at human PD-L1 was found to be 37 nM. In addition, in test [1], the half-maximal inhibitory concentration (IC50) came out at 0.02 nM.

Regarding `COCCC(=O)N1CC2(CN(Cc3ccc(-c4nccc(-c5cccc(-c6ccc(CN7CC8(C7)CN(C(=O)CCOC)C8)c(OC)n6)c5Cl)c4Cl)cc3OC)C2)C1` [Example 679, 1-(6-((6-(2-Chloro-3-(3-chloro-2-(3-methoxy-4-((6-(3-methoxypropanoyl)-2,6-diazaspiro[3.3]heptan-2-yl)methyl)phenyl)pyridin-4-yl)phenyl)-2-methoxypyridin-3-yl)methyl)-2,6-diazaspiro[3.3]heptan-2-yl)-3-methoxypropan-1-one], the EC50 at human PD-L1 worked out at 30.5 nM. For the same molecule, in test [1], the concentration for half-maximal inhibition (IC50) was 0.16 nM.
